The source made the active and inactive calls. The rule behind the calls is not given here.
Tests used:
[1] = molecular target: Serine/threonine-protein kinase ICK (Homo sapiens) (UniProt Q9UPZ9); test: Inhibition of DNA-tagged human ICK assessed as percent of control at 50000 nM by qPCR analysis relative to control; set-up: scale not given: the % may be the effect or the level left
[2] = molecular target: Homeodomain-interacting protein kinase 4 (Homo sapiens) (UniProt Q8NE63); test: Inhibition of DNA-tagged human HIPK4 assessed as percent of control at 50000 nM by qPCR analysis relative to control; set-up: scale not given: the % may be the effect or the level left
Sequence of Homeodomain-interacting protein kinase 4 (Homo sapiens) (Q8NE63 whole entry): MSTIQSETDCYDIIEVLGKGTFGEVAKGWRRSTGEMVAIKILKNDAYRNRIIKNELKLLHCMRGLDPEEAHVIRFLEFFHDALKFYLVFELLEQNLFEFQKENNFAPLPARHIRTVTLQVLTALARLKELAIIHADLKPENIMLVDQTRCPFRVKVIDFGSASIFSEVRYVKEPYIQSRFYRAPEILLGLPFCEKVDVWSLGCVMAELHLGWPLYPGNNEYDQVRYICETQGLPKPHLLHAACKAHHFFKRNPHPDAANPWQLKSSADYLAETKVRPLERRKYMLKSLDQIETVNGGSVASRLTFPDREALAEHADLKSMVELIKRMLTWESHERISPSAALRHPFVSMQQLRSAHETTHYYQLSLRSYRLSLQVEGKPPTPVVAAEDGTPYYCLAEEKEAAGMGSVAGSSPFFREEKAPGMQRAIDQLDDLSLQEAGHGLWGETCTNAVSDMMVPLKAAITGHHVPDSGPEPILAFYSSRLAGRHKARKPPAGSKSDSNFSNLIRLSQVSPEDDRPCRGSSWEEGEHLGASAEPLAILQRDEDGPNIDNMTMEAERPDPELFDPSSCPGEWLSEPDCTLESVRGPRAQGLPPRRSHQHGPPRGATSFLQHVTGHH

[3] = molecular target: Homeodomain-interacting protein kinase 3 (Homo sapiens) (UniProt Q9H422); test: Inhibition of DNA-tagged human HIPK3 assessed as percent of control at 50000 nM by qPCR analysis relative to control; set-up: scale not given: the % may be the effect or the level left
[4] = molecular target: Glycogen synthase kinase-3 alpha (Homo sapiens) (UniProt P49840); test: Inhibition of DNA-tagged human GSK3A assessed as percent of control at 50000 nM by qPCR analysis relative to control; set-up: scale not given: the % may be the effect or the level left
[5] = molecular target: Cyclin-G-associated kinase (Homo sapiens) (UniProt O14976); test: Inhibition of DNA-tagged human GAK assessed as percent of control at 50000 nM by qPCR analysis relative to control; set-up: scale not given: the % may be the effect or the level left
[6] = molecular target: Mitogen-activated protein kinase 7 (Homo sapiens) (UniProt Q13164); test: Inhibition of DNA-tagged human ERK5 assessed as percent of control at 50000 nM by qPCR analysis relative to control; set-up: scale not given: the % may be the effect or the level left
[7] = molecular target: Receptor tyrosine-protein kinase erbB-3 (Homo sapiens) (UniProt P21860); test: Inhibition of DNA-tagged human ERBB3 assessed as percent of control at 50000 nM by qPCR analysis relative to control; set-up: scale not given: the % may be the effect or the level left
[8] = molecular target: Ephrin type-B receptor 1 (Homo sapiens) (UniProt P54762); test: Inhibition of DNA-tagged human EPHB1 assessed as percent of control at 50000 nM by qPCR analysis relative to control; set-up: scale not given: the % may be the effect or the level left
[9] = molecular target: Ephrin type-A receptor 3 (Homo sapiens) (UniProt P29320); test: Inhibition of DNA-tagged human EPHA3 assessed as percent of control at 50000 nM by qPCR analysis relative to control; set-up: scale not given: the % may be the effect or the level left
[10] = molecular target: Eukaryotic translation initiation factor 2-alpha kinase 1 (Homo sapiens) (UniProt Q9BQI3); test: Inhibition of DNA-tagged human EIF2AK1 assessed as percent of control at 50000 nM by qPCR analysis relative to control; set-up: scale not given: the % may be the effect or the level left
[11] = test system: Epidermal growth factor receptor (Homo sapiens), P00533 [L858R,T790M]; test: Inhibition of DNA-tagged human EGFR L858R/T790M double mutant assessed as percent of control at 50000 nM by qPCR analysis relative to control; set-up: scale not given: the % may be the effect or the level left
[12] = test system: Epidermal growth factor receptor (Homo sapiens), P00533 [L858R]; test: Inhibition of DNA-tagged human EGFR L858R mutant assessed as percent of control at 50000 nM by qPCR analysis relative to control; set-up: scale not given: the % may be the effect or the level left
[13] = molecular target: Dual specificity tyrosine-phosphorylation-regulated kinase 1B (Homo sapiens) (UniProt Q9Y463); test: Inhibition of DNA-tagged human DYRK1B assessed as percent of control at 50000 nM by qPCR analysis relative to control; set-up: scale not given: the % may be the effect or the level left
[14] = molecular target: Megakaryocyte-associated tyrosine-protein kinase (Homo sapiens) (UniProt P42679); test: Inhibition of DNA-tagged human CTK assessed as percent of control at 50000 nM by qPCR analysis relative to control; set-up: scale not given: the % may be the effect or the level left
[15] = molecular target: Dual specificity protein kinase CLK1 (Homo sapiens) (UniProt P49759); test: Inhibition of DNA-tagged human CLK1 assessed as percent of control at 50000 nM by qPCR analysis relative to control; set-up: scale not given: the % may be the effect or the level left
[16] = molecular target: Calcium/calmodulin-dependent protein kinase type II subunit beta (Homo sapiens) (UniProt Q13554); test: Inhibition of DNA-tagged human CAMK2B assessed as percent of control at 50000 nM by qPCR analysis relative to control; set-up: scale not given: the % may be the effect or the level left
Sequence of Calcium/calmodulin-dependent protein kinase type II subunit beta (Homo sapiens) (Q13554 whole entry): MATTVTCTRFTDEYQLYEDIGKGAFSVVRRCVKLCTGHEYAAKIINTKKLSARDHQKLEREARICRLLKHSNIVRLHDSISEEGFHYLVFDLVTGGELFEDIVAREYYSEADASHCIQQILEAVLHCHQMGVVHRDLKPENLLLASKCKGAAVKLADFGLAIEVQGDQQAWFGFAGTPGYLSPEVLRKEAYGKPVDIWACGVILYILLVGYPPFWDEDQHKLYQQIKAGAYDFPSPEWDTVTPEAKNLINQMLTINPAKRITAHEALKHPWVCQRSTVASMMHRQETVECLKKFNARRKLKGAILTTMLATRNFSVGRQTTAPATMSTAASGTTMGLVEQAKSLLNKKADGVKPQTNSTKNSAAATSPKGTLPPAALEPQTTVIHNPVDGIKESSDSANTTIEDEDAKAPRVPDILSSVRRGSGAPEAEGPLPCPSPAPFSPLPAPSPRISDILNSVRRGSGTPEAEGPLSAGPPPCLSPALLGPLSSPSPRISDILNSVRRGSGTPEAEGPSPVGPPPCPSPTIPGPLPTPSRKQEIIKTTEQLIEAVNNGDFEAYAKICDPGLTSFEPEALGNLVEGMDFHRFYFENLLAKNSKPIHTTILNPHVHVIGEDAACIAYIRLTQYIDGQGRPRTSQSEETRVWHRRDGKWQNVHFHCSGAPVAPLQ

[17] = molecular target: Mitogen-activated protein kinase kinase kinase 5 (Homo sapiens) (UniProt Q99683); test: Inhibition of DNA-tagged human ASK1 assessed as percent of control at 50000 nM by qPCR analysis relative to control; set-up: scale not given: the % may be the effect or the level left
[18] = molecular target: RAC-gamma serine/threonine-protein kinase (Homo sapiens) (UniProt Q9Y243); test: Inhibition of DNA-tagged human AKT3 assessed as percent of control at 50000 nM by qPCR analysis relative to control; set-up: scale not given: the % may be the effect or the level left
Sequence of RAC-gamma serine/threonine-protein kinase (Homo sapiens) (Q9Y243 whole entry): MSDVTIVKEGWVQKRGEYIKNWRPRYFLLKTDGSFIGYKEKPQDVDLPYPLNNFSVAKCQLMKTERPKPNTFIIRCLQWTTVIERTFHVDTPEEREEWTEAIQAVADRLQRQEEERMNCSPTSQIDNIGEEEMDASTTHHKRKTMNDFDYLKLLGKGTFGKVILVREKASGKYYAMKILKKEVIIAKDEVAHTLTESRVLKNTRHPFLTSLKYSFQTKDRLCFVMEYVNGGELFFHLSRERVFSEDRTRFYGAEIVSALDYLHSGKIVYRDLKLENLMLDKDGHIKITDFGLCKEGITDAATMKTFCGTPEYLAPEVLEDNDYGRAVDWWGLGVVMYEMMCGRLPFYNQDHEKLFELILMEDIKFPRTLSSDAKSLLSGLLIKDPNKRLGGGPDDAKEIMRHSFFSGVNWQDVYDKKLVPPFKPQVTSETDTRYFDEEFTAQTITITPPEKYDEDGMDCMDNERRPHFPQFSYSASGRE

MV4-11 = test: Cytotoxicity against human MV4-11 cells at 0.1-100 uM assessed as decrease in cell viability relative to control; format: functional, cell-based
[19] = molecular target: Mitogen-activated protein kinase kinase kinase kinase 3 (Homo sapiens) (UniProt Q8IVH8); test: Inhibition of DNA-tagged human MAP4K3 assessed as percent of control at 50000 nM by qPCR analysis relative to control; set-up: scale not given: the % may be the effect or the level left
[20] = test system: Hepatocyte growth factor receptor (Homo sapiens), P08581 [M1250T]; test: Inhibition of DNA-tagged human MET M1250T mutant assessed as percent of control at 50000 nM by qPCR analysis relative to control; set-up: scale not given: the % may be the effect or the level left
[21] = molecular target: Myosin light chain kinase, smooth muscle (Homo sapiens) (UniProt Q15746); test: Inhibition of DNA-tagged human MYLK assessed as percent of control at 50000 nM by qPCR analysis relative to control; set-up: scale not given: the % may be the effect or the level left
Sequence of Myosin light chain kinase, smooth muscle (Homo sapiens) (Q15746 whole entry): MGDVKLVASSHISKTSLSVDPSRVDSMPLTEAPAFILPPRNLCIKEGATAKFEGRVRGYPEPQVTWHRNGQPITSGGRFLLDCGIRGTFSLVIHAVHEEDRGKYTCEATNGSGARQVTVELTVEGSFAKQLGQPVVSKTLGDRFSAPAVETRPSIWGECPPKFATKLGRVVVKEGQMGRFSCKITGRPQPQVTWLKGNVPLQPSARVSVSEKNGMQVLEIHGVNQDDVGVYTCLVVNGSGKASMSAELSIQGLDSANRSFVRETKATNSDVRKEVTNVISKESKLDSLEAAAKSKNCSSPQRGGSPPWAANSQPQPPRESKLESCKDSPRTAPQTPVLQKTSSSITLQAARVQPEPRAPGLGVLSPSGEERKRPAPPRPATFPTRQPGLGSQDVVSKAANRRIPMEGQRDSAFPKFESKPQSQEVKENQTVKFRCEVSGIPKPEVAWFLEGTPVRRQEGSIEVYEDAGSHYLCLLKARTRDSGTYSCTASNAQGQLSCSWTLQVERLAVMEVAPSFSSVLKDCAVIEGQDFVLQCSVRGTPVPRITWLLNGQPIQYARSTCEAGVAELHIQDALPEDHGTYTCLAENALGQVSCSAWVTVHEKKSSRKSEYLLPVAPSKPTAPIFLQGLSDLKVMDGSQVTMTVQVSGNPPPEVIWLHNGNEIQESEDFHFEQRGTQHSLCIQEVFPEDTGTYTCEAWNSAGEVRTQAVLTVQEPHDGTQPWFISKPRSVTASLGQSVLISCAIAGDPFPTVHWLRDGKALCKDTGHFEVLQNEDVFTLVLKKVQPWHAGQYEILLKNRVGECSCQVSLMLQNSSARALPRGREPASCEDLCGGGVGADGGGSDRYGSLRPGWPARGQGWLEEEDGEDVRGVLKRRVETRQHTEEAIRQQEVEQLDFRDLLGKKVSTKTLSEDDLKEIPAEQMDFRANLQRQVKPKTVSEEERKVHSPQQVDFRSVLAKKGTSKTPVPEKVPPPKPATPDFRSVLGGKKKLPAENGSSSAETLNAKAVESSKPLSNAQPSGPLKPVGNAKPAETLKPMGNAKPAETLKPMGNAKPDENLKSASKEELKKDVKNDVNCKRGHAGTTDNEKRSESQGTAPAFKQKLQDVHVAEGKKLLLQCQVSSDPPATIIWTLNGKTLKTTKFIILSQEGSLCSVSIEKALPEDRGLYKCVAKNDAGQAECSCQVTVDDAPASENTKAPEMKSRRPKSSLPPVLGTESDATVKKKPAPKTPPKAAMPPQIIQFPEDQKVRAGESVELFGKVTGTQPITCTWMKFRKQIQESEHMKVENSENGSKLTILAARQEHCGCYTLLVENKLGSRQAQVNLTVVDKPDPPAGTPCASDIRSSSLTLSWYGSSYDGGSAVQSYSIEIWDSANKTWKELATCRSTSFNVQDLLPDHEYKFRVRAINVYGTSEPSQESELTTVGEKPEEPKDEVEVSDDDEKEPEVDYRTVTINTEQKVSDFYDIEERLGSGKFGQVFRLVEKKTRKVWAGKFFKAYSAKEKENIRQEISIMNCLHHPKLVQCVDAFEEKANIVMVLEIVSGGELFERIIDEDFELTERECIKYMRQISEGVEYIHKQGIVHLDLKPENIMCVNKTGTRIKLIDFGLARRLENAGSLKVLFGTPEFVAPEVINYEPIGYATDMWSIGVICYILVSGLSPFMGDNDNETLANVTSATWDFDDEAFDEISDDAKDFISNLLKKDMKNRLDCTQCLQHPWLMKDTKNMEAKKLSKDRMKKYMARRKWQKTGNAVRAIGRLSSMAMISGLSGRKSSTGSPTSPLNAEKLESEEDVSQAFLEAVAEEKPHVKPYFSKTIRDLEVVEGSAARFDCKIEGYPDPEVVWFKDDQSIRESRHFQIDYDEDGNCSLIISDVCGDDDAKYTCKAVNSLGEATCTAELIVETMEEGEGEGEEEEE

[22] = molecular target: Serine/threonine-protein kinase Nek6 (Homo sapiens) (UniProt Q9HC98); test: Inhibition of DNA-tagged human NEK6 assessed as percent of control at 50000 nM by qPCR analysis relative to control; set-up: scale not given: the % may be the effect or the level left
Sequence of Serine/threonine-protein kinase Nek6 (Homo sapiens) (Q9HC98 whole entry): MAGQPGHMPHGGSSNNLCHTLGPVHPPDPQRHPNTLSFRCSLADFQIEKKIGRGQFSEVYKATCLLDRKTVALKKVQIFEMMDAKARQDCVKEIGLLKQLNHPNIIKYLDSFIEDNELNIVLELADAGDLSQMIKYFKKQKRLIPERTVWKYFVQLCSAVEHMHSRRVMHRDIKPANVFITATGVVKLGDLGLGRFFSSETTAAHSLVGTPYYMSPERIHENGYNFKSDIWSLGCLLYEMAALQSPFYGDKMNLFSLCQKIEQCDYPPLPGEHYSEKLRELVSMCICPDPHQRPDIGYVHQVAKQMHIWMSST

[23] = molecular target: Cyclin-dependent kinase 2 homolog (Plasmodium falciparum (isolate K1 / Thailand)) (UniProt Q07785); test: Inhibition of DNA-tagged Plasmodium falciparum PFPK5 assessed as percent of control at 50000 nM by qPCR analysis relative to control; set-up: scale not given: the % may be the effect or the level left
Sequence of Cyclin-dependent kinase 2 homolog (Plasmodium falciparum (isolate K1 / Thailand)) (Q07785 whole entry): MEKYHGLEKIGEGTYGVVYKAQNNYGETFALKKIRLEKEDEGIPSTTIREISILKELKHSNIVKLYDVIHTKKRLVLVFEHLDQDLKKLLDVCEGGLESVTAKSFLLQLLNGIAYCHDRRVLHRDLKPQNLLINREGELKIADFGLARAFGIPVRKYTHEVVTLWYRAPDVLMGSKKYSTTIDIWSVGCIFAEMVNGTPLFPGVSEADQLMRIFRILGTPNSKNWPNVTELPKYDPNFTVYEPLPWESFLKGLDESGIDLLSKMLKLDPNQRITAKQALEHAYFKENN

[24] = molecular target: Serine/threonine-protein kinase PRP4 homolog (Homo sapiens) (UniProt Q13523); test: Inhibition of DNA-tagged human PRP4 assessed as percent of control at 50000 nM by qPCR analysis relative to control; set-up: scale not given: the % may be the effect or the level left
[25] = molecular target: Serine/threonine-protein kinase SIK1 (Homo sapiens) (UniProt P57059); test: Inhibition of DNA-tagged human SIK assessed as percent of control at 50000 nM by qPCR analysis relative to control; set-up: scale not given: the % may be the effect or the level left
Sequence of Serine/threonine-protein kinase SIK1 (Homo sapiens) (P57059 whole entry): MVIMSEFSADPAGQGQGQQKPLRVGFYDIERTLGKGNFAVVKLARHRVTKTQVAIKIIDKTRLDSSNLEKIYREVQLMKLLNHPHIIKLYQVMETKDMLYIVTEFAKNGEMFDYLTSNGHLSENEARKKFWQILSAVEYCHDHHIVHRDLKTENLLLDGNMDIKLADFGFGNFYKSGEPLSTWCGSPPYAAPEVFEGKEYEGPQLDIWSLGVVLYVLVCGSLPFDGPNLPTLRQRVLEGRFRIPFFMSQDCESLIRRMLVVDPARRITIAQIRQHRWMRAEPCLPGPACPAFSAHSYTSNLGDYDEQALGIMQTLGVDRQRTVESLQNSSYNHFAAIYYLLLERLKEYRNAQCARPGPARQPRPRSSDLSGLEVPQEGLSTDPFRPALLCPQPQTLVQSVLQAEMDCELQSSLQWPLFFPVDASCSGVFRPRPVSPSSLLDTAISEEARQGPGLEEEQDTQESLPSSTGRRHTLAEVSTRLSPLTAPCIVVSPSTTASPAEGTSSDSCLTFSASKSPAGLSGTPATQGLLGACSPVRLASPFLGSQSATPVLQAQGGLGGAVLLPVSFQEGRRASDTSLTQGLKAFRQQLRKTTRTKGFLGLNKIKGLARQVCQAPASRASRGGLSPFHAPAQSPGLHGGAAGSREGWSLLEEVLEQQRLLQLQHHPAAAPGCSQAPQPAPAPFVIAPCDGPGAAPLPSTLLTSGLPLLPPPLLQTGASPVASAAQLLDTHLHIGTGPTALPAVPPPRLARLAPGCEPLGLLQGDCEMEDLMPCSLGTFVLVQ

[26] = molecular target: Tyrosine-protein kinase Srms (Homo sapiens) (UniProt Q9H3Y6); test: Inhibition of DNA-tagged human SRMS assessed as percent of control at 50000 nM by qPCR analysis relative to control; set-up: scale not given: the % may be the effect or the level left
[27] = molecular target: SRSF protein kinase 2 (Homo sapiens) (UniProt P78362); test: Inhibition of DNA-tagged human SRPK2 assessed as percent of control at 50000 nM by qPCR analysis relative to control; set-up: scale not given: the % may be the effect or the level left
[28] = molecular target: Serine/threonine-protein kinase TAO2 (Homo sapiens) (UniProt Q9UL54); test: Inhibition of DNA-tagged human TAOK2 assessed as percent of control at 50000 nM by qPCR analysis relative to control; set-up: scale not given: the % may be the effect or the level left
[29] = molecular target: Serine/threonine-protein kinase 25 (Homo sapiens) (UniProt O00506); test: Inhibition of DNA-tagged human YSK1 assessed as percent of control at 50000 nM by qPCR analysis relative to control; set-up: scale not given: the % may be the effect or the level left

With `CN1C(=O)/C(=C2/C(=O)Nc3ccccc32)c2ccccc21` the Activity [1] was 92%, the Activity [2] was 100% and the Activity [3] was 80%. For the same molecule, the Activity [4] was 85%, the Activity [5] was 98% and the Activity [6] was 97%. It also gave an Activity [7] of 51%, an Activity [8] of 97% and an Activity [9] of 91%. It also gave an Activity [10] of 64%, an Activity [11] of 98% and an Activity [12] of 89%. The Activity [13] was 92%, the Activity [14] was 56% and the Activity [15] was 100%. It also gave an Activity [16] of 86%, an Activity [17] of 100% and an Activity [18] of 92%. The Activity (MV4-11) was “Active”, the Activity [19] was 90% and the Activity [20] was 80%. It also gave an Activity [21] of 82%, an Activity [22] of 81% and an Activity [23] of 72%. For the same molecule, the Activity [24] was 89%, the Activity [25] was 93% and the Activity [26] was 88%. The Activity [27] was 100%, the Activity [28] was 84% and the Activity [29] was 40%.

— ChEMBL document CHEMBL4804284
